Laboratory results taken from ChEMBL document CHEMBL1201862, “PubChem BioAssay data set” (2004).
Calls of active or inactive are those of the source.

Assays:
[1] = inhibitors of PGC1a acetylation in cells, dose response, cell-based, cherry-picked samples (AID 720514); type: functional;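 note: potency may reflect raised or lowered acetylation signal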
[2] = target: T1, DNA repair and recombination protein RAD54-like (Homo sapiens, UniProt Q92698); test: inhibitors of human RAD54 branch migration, confirmation, biochemical, fluorescence, cherry-picked samples, dose series (AID 651657); type: functional
T1 sequence (Q92698 whole entry): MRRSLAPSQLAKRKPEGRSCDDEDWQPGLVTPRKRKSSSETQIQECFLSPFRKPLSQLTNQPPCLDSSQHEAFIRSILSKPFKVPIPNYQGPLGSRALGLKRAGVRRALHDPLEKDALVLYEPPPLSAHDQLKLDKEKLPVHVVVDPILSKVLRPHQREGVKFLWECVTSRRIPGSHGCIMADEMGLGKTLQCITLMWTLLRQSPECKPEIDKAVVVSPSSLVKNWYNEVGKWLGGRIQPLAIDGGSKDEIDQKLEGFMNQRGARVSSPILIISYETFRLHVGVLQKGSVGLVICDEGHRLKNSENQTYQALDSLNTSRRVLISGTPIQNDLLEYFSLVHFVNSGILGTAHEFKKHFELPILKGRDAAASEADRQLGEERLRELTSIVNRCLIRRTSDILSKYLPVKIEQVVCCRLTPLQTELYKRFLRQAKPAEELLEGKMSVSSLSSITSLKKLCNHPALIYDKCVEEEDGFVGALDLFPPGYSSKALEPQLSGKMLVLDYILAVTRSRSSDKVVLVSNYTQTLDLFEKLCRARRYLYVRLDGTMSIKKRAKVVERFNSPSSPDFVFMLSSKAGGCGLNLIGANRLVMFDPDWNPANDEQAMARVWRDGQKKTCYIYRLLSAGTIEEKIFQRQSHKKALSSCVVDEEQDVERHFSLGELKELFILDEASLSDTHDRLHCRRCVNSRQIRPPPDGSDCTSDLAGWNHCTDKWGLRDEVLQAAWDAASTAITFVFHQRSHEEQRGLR

[3] = target: T2, Replicative DNA helicase DnaB (Mycobacterium tuberculosis, UniProt P9WMR3); test: DnaB intein splicing inhibitors, dose response, biochemical, cell-free fluorescence (AID 449749); type: functional
T2 sequence (P9WMR3 whole entry): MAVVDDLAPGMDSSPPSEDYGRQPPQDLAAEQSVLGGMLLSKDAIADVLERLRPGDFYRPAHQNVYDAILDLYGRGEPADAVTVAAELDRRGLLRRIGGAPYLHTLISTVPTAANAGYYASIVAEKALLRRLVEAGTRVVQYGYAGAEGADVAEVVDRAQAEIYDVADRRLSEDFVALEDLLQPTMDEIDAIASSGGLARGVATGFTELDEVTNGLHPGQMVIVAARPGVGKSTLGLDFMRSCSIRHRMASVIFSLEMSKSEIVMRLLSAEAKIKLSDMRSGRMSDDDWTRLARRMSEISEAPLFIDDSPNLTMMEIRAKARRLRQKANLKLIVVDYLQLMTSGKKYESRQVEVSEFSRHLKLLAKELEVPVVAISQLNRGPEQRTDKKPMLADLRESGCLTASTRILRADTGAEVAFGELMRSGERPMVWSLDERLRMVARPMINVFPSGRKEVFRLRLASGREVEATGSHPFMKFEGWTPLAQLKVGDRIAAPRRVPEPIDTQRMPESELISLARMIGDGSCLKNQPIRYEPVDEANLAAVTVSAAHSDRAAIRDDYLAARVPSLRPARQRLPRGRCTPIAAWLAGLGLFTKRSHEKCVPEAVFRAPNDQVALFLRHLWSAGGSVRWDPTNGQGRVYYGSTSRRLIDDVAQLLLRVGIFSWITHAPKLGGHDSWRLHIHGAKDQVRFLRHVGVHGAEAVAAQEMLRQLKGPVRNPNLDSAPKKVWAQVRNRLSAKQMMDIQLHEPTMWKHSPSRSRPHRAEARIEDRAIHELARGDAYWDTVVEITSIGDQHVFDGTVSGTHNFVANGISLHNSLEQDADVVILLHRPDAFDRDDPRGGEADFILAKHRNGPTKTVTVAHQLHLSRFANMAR

[4] = target: Dual specificity protein phosphatase 3 (Homo sapiens, UniProt P51452); test: VHR1 phosphatase inhibitors, biochemical (AID 1878)
Chain of Dual specificity protein phosphatase 3 (P51452 whole entry): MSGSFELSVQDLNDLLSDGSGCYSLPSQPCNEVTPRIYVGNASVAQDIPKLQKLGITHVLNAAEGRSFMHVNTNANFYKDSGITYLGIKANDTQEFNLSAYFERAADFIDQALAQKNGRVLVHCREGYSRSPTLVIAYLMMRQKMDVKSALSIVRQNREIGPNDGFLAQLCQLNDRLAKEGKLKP

[5] = target: Protein-arginine deiminase type-4 (Homo sapiens, UniProt Q9UM07); test: human PAD4 inhibitor potency, dose response, biochemical, fluorescence readout (AID 492970)
Chain of Protein-arginine deiminase type-4 (Q9UM07 whole entry): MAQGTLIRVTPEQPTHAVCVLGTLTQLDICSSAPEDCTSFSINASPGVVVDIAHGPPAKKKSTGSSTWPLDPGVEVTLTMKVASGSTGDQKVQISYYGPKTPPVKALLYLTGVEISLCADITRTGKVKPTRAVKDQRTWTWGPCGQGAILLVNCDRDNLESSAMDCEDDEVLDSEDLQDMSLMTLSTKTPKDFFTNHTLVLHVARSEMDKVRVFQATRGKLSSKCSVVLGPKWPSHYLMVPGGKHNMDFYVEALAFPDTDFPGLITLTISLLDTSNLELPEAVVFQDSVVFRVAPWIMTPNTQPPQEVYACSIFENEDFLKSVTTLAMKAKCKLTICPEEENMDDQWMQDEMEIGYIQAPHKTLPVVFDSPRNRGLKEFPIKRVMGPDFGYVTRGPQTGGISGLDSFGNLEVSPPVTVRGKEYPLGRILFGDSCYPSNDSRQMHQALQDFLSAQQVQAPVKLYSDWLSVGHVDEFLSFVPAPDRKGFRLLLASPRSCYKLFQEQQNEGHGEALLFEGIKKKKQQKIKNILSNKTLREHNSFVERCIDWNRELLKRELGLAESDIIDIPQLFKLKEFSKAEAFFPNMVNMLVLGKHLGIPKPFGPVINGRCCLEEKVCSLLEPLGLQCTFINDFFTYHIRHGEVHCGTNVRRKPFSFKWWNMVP

[6] = target: T2, Replicative DNA helicase DnaB; test: DnaB Intein secondary assay Measured in Biochemical System Using Plate Reader - 2047-04_Inhibitor_Dose_DryPowder_Activity. [Related pubchem assays (depositor defined):AID2223]
[7] = target: T3, Calpain-2 catalytic subunit (Sus scrofa, UniProt P43367); test: pig calpain II inhibitor potency, dose response, biochemical, fluorogenic peptide substrate (AID 1420); type: functional
T3 sequence (P43367 whole entry): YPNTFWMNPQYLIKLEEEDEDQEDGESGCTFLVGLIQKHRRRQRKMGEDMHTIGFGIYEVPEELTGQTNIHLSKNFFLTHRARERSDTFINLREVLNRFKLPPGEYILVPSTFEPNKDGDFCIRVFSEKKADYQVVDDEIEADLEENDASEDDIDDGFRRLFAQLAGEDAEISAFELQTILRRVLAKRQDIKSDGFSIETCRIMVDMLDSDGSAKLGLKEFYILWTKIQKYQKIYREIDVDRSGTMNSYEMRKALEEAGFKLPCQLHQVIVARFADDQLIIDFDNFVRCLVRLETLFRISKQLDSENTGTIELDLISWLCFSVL

Cytochrome P450 2C9 = Cytochrome P450 2C9 (Homo sapiens, UniProt P11712)
Chain of Cytochrome P450 2C9 (P11712 whole entry, the tested form may be a part): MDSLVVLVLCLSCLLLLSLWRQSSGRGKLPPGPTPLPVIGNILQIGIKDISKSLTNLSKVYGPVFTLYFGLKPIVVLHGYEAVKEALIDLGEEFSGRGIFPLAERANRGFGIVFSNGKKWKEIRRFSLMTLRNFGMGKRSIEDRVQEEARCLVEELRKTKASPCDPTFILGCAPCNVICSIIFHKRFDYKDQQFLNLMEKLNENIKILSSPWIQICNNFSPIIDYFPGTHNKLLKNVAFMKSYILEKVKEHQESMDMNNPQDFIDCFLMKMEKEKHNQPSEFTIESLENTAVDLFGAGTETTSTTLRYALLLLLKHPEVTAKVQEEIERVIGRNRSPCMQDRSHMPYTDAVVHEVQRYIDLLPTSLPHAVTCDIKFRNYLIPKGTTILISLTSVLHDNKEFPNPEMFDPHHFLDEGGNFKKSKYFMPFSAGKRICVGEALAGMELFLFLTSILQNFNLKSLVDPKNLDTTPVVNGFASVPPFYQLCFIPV

[8] = ZM109 Env clade C HIV-1 fusion inhibitors, dose response, HeLa effector, CEM target cells, luciferase, cherry-pick (AID 652058); type: functional, cell-based
[9] = miR-122 activators in hepatoma reporter cells, dose response, cell-based, Huh7 psiCHECK-miR122, Renilla luciferase, cherry-picked (AID 651956); type: functional;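 note: huh7 hepatoma cells stably carrying a psiCHECK-2 miR-122 sensor plasmid; renilla luciferase signal reporting endogenous miR-122 activity after 48 h compound exposure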
[10] = system: Streptococcus sp. 'group A'; test: growth inhibition of control SK(-) GAS strain, dose response, counter-screen for streptokinase expression inhibitor project, luminescence, kanamycin, BacTiterGlo, confirmation (AID 1900); type: functional, organism-based
[11] = HEK293T cytotoxicity, dose response, cytotoxicity control for miR-122 modulator project, cell-based, activator set, cherry-pick (AID 720690); type: functional;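 note: HEK293T human cells scored for general mammalian cytotoxicity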
cells = type: functional, cell-based; conditions: HEK-CNG
BJ = test: cytotoxicity toward BJ-TERT-LT-ST fibroblasts, dose response, cell-based, RAS-independent, luminescence (AID 1935); type: functional; conditions: Homo sapiens;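 note: BJ fibroblasts immortalized with TERT plus LT and ST oncogenes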
[12] = target: Small ubiquitin-related modifier 1 (Homo sapiens, UniProt P63165); test: inhibitors of SUMO1 peptide binding, dose response, biochemical, fluorescence polarization, uHTS hits (AID 624382); type: functional; conditions: read-out: IC50_Mean
Chain of Small ubiquitin-related modifier 1 (P63165 whole entry): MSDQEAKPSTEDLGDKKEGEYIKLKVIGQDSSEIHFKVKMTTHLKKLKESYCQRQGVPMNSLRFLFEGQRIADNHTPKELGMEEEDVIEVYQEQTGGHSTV

ORF 73 = ORF 73 (Human herpesvirus 8, UniProt O40947); test: inhibitors of C-LANA binding to LBS DNA, dose response, biochemical, fluorescence polarization, cherry-picked samples (AID 504725); set-up: species or system Human gammaherpesvirus 8;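 note: fluorescence polarization of a labeled DNA duplex reporting LANA DNA binding; potency is for inhibitors that block LANA binding to the DNA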
Chain of ORF 73 (O40947 whole entry): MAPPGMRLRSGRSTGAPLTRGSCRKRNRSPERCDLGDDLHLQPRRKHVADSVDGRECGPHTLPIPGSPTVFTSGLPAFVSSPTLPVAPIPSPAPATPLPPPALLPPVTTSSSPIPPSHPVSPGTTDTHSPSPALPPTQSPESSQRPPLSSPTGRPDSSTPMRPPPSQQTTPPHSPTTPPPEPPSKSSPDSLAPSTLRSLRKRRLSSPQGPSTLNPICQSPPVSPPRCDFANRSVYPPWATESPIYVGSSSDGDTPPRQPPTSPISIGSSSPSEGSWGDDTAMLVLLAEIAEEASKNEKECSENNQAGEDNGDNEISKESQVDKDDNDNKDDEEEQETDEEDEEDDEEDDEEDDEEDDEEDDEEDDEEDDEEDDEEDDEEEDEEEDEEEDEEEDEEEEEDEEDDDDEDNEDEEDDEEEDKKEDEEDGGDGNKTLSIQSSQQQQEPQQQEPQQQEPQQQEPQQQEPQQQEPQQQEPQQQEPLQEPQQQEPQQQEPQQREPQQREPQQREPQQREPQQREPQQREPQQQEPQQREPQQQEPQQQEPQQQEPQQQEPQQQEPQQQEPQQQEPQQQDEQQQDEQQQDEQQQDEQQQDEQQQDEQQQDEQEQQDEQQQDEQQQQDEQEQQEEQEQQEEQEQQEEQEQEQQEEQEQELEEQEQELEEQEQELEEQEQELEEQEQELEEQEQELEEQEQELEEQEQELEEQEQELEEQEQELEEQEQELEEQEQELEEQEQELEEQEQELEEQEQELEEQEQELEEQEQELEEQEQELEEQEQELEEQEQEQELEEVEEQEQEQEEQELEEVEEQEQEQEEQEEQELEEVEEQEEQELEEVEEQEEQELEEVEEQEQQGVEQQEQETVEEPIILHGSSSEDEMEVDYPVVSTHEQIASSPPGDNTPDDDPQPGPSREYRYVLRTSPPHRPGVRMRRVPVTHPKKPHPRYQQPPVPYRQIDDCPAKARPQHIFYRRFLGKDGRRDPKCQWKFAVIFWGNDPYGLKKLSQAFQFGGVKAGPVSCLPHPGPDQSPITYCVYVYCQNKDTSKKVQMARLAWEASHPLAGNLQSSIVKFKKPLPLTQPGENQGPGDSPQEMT

| SMILES | AC50 [1] | AC50 [2] | AC50 [3] | IC50 [4] | IC50 [5] | AC50 [6] | IC50 [7] | AC50 (Cytochrome P450 2C9) | AC50 [8] | AC50 [9] | EC50 [10] | AC50 [11] | EC50 (cells) | EC50 (BJ) | IC50 [12] | AC50 (ORF 73) |
| --- | --- | --- | --- | --- | --- | --- | --- | --- | --- | --- | --- | --- | --- | --- | --- | --- |
| Cn1nc(-c2ccccn2)nc2c(=O)n(C)c(=O)nc1-2 | 3.15 µM (active) | 1.22 µM (active) | 0.573 µM (active) | 10.2 µM (active) | 21 µM (inactive) | 0.503 µM (active) | – | – | – | – | – | – | – | – | – | – |
| CCCCCCCCCCn1c2c(c(=N)c3c1CCC3)CCC2 | – | – | 2.81 µM (active) | – | – | – | 6.72 µM (active) | 20 µM (inconclusive) | 1.7 µM (active) | 5.06 µM (active) | 5.58 µM (active) | 6.56 µM (active) | 15.8 µM (inactive) | 5.73 µM (inconclusive) | – | – |
| COc1ccc(NS(=O)(=O)c2ccc3c(c2)[C@H]2C=CC[C@H]2[C@@H](c2ccc(C(=O)O)cc2)N3)cc1 | – | – | – | – | – | – | – | – | – | – | – | – | – | – | 4.98 µM (active) | 71.9 µM (active) |
